The values below come from ChEMBL document CHEMBL4177634, “6-Substituted quinolines as RORγt inverse agonists” (Bioorg Med Chem Lett, 2017).

SMILES strings stand for the structures.

For this test, the target named is T1, Nuclear receptor ROR-gamma (Homo sapiens, UniProt P51449).
T1 sequence (P51449 whole entry): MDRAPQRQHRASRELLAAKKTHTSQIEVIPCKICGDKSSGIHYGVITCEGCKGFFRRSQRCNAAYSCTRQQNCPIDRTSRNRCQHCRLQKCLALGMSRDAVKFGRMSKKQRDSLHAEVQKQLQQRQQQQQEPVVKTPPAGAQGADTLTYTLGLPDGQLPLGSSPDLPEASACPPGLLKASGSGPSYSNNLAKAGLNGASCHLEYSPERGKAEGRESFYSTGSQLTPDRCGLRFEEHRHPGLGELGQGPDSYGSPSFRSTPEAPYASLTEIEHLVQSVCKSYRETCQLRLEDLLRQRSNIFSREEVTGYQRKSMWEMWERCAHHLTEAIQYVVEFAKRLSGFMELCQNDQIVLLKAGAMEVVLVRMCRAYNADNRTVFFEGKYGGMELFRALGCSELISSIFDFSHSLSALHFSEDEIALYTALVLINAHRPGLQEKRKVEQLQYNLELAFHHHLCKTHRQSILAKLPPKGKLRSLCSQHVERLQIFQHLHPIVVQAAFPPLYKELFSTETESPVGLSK
Description: Displacement of 1,8-ANS from human N-terminal His-tagged RORgammat LBD ([…]) expressed in Escherichia coli by thermofluor assay. Background: In DSF a fluorescence change marks the thermal transition of the protein.

A word on the Kd: it is the free concentration of one partner at which half of the binding sites on the other are occupied at equilibrium, for simple one-to-one binding. Turning to `COc1nc2ccc(C(O)(c3ccccc3)C3CCN(C(C)=O)CC3)cc2c(Cl)c1Cc1ccc(-n2cccn2)cc1` (stereo in doubt; 25a), the Kd came to 3.6 nM.
